The source of these data is patent US20230226198A1, “Artemisinin Derivatives” (DA ZEN THERANOSTICS, INC., priority 2019, published 2023).

The subject of one test is C4-2B MDVR cells. In words: Seahorse XF mitochondrial function (OCR/ECAR). The class given is cell-based, human. The settings on record: 5 uM, over 12 hours. The method, then: Example 5 C: To determine mitochondrial function of cancer cells (here C4-2B MDVR), the cells are treated with vehicle, DZ (5 uM), DHA (5 uM), and DZ-003 (5 uM) over 12 hours, and the oxygen consumption rate (OCR) from respiration and extracellular acidification rate (ECAR) from glycolysis of the live cells is determined in a metabolic chamber in a 24-well plate format using a Seahorse XF analyzer (Seahorse XFe24, Agilent, Calif.). Reagents (drugs/controls) are added to the wells just before start of the recording at time 0, and the effect of the drugs on the basal mitochondrial function is recorded by the analyzer for about 12 hours (720 minutes). All reagents used are Agilent reagents. Cells are seeded and cultured in Seahorse XF RPMI Medium, pH 7.4. The seeding rate is 8×10^5 for the cells to reach about 90% confluency within about 24 hours when the analysis is started. The protocol is essentially performed as per the standard protocol of the manufacturer, removing the medium, washing the cells once with XF Real-Time ATP Rate Assay Medium, then starting the measurement as per the instrument's pre-programming and subsequent real-time measurements of OCAR/ECAR. Preliminary experiments indicate that the THAD as described herein may have an increased effect compared to DZ3a.

For test [1], the system named is Caki-1 cells (human clear cell renal cell carcinoma cells). Put plainly: MTT cell viability / IC50 assay, Caki-1. Format: cell-based. The method, then:
(§1) Cell culture: In the following examples, unless otherwise specified, all cell lines are purchased from American Type Culture Collection and cultured in American Type Culture Collection (ATCC)-recommended media, with fetal bovine serum (FBS) to a final concentration of 10% and 1× penicillin/streptomycin at 37° C. with 5% CO2 in a cell culture incubator, unless otherwise specified. Unless otherwise specified, culture is 2D. Where culture is 3D, low attachment plates are used, with the same media. C4-2B (ATCC® CRL-3315™, human prostate cancer cells of epithelial morphology) parental cell line and drug-resistant cells derived therefrom) are cultured in RPMI-1640 with 10% FBS. MDVR cells (an Enzalutamide-resistant variety of C4-2B prostate cancer cells formed as described below) are cultured as indicated for the parental C4-2B cells. Caki-1 cells (human clear cell renal cell carcinoma cells) are cultured in ATCC-formulated McCoy's 5a Medium Modified (ATCC Catalog No. 30-2007) with 10% FBS. PC3 cells (ATCC® CRL-1435™, a human prostate cancer cell line of epithelial morphology initiated from a bone metastasis of a grade IV prostatic adenocarcinoma) are cultured in F-12K with 10% FBS. 22RV1 Prostate Cancer (PC) cells (ATCC® CRL-2505™, a human prostate carcinoma cell line of epithelial morphology) are cultured in RPMI-1640 with 10% FBS. DU145 cells (ATCC® HTB-81™, a human cell line derived from a prostate-originating brain metastase, not detectably hormone sensitive, not expressing prostate antigen; forms adenocarcinoma grade II in nude mice) are cultured in ATCC-formulated Eagle's Minimum Essential Medium (EMEM, Catalog No. 30-2003). H446 cells (ATCC® HTB-171™, a human small cell carcinoma SC lung cancer (SCLC) cell line derived from a metastatic site) are cultured in RPMI-1640 with 10% FBS. H358 cells (ATCC® CRL-5807™, a human non-small cell lung cancer (NSCLC) cell line that expresses protein and RNA of SP-A, the major lung surfactant associated protein, and produces tumors in athymic nude mice) are cultured in RPMI-1640 Medium with 10% FBS. BxPC3 cells (ATCC® CRL-1687™, an adenocarcinoma-derived pancreatic cancer cell line that expresses pancreas cancer specific antigen and carcinoembryonic antigen and forms tumors in nude mice) are cultured in RPMI-1640 with 10% FBS.
Example 1: A cell assay is performed exposing cells cultured as described above to various drugs indicated below for 24 hours unless otherwise indicated. Each of the cell lines is treated either with a THAD (e.g. DZ-DHA-ether, MI-148-bis-DHA), or for comparison, with the DHA mono-ester “DZ-DHA”; alternatively/additionally, DZ1 and/or unconjugated DHA may serve as comparants. For each cell line, the IC50 is determined for each drug in concentrations from 0 to 100 μM. […] In the controls (not shown in the figures), the cells are exposed to DMSO (vehicle) for a final concentration that equals the highest concentration of the drug tested, to a maximum concentration less than 0.1% v/v. 4 hours before culture end/SDS addition, 10 μL MTT (3-(4,5-Dimethyl-2-thiazolyl)-2,5-diphenyl-2H-tetrazolium bromide, Sigma-Aldrich) is added to wells containing the cells. At the end of culture, 100 μl 10% SDS is added and then the plate containing the cells is placed in a 37° C. cell culture incubator for 8 hours. The absorbance density of the supernatant is read on a 96-well microplate reader at wavelength 595 nm. The results of Caki-1 and MDRV are indicated in the table below along with preliminary results for further cancer cell lines (including, e.g., C4-2B, Abi-R, PC3, 22Rv1, DU145, H358, H446, BxPC3), and the corresponding curves are shown in FIG. 2A (Caki-1) and FIG. 2B (MDVR).

The subject of test [2] is MDVR cells (Enzalutamide-resistant C4-2B prostate cancer cells). In words: MTT cell viability / IC50 assay, MDVR. The class given is cell-based. The conditions noted are these: Homo sapiens. The method, then:
as §1
Resistant prostate cancer cell lines MDVR and AbiR: MDVR cells are Enzalutamide-resistant cells, AbiR are Abiraterone acetate resistant cells, formed from parental C4-2B prostate cancer cells as follows. A cell assay is performed exposing cells cultured as described above to various drugs indicated below for 72 hours. Parental C4-2B cells are C4-2B non-resistant cells not previously exposed to cancer drugs. Drug-resistant C4-2B cells are created by prolonged exposure to the relevant drug, i.e. Enzalutamide for MDVR, and Abiraterone acetate for AbiR cells, at initially sub-lethal and gradually increasing concentrations until resistance is achieved.
Example 1: A cell assay is performed exposing cells cultured as described above to various drugs indicated below for 24 hours unless otherwise indicated. Each of the cell lines is treated either with a THAD (e.g. DZ-DHA-ether, MI-148-bis-DHA), or for comparison, with the DHA mono-ester “DZ-DHA”; alternatively/additionally, DZ1 and/or unconjugated DHA may serve as comparants. For each cell line, the IC50 is determined for each drug in concentrations from 0 to 100 μM. […] In the controls (not shown in the figures), the cells are exposed to DMSO (vehicle) for a final concentration that equals the highest concentration of the drug tested, to a maximum concentration less than 0.1% v/v. 4 hours before culture end/SDS addition, 10 μL MTT (3-(4,5-Dimethyl-2-thiazolyl)-2,5-diphenyl-2H-tetrazolium bromide, Sigma-Aldrich) is added to wells containing the cells. At the end of culture, 100 μl 10% SDS is added and then the plate containing the cells is placed in a 37° C. cell culture incubator for 8 hours. […]

Test [3] concerns L858R/T790M EGFR versus wild-type EGFR. The conditions noted are these: inhibiting phosphorylation of EGFR in cell lines; cited from earlier work.
Setting [4] is: Caki-1, 24 hours, relative IC50, read-out: IC50.
Where [5] appears, read: Caki-1, unit inferred, read-out: IC50 (FIG. 2A description).
[6] abbreviates: ENZ-resistant C4-2B cells (MDVR), unit inferred, read-out: IC50 (FIG. 2B description).
[7] abbreviates: MDVR, 24 hours, relative IC50, read-out: IC50.

Like-named read-outs stand apart in the source and are kept apart here.

With `CC1(C)C(/C=C/C2=C(Cl)C(=C/C=C3/N(CCCCCC(=O)O)c4ccccc4C3(C)C)/CCC2)=[N+](CCCCS(=O)(=O)[O-])c2ccccc21` [DZ1], in the test on C4-2B MDVR cells, the “lowering of OCR (in words)” value is given as “drop much less”.
One may read the IC50 as the point on the concentration scale where inhibition reaches its midpoint. As to `C[C@@H]1CC[C@H]2[C@@H](C)C(OC(=O)CCCCCN3/C(=C/C=C4\CCCC(/C=C/C5=[N+](CCCCCC(=O)OC6O[C@@H]7O[C@]8(C)CC[C@H]9[C@H](C)CC[C@@H]([C@H]6C)[C@@]79OO8)c6ccccc6C5(C)C)=C4Cl)C(C)(C)c4ccccc43)O[C@@H]3O[C@]4(C)CC[C@@H]1[C@]32OO4` (stereo partly shown) [MHI-148-bis-DHA], the IC50 in test [1] (setting [4]) was 710 nM; in test [1] (setting [5]), 500 to 1500 nM; in test [2] (setting [6]), under 1000 nM; in test [2] (setting [7]) it was 860 nM.
For `C[C@@H]1CC[C@H]2[C@@H](C)C(OCCNC(=O)CCCCCN3/C(=C/C=C4\CCCC(/C=C/C5=[N+](CCCCS(=O)(=O)[O-])c6ccccc6C5(C)C)=C4Cl)C(C)(C)c4ccccc43)O[C@@H]3O[C@]4(C)CC[C@@H]1[C@]32OO4` (stereo partly shown) [DZ-DHA-ether] the same measures were 1420 nM, 500 to 1500 nM, 3470 nM and under 3470 nM.
In the case of `C=CC(=O)Nc1cc(Nc2nccc(-c3cn(C)c4ccccc34)n2)c(OC)cc1N(C)CCN(C)C` [Osimertinib], the “potency against L858R/T790M relative to wild-type EGFR” value in test [3] is given as 100-200 times.
